Reference: patent US12383535B2, “Hydrogen peroxide-responsive KEAP1-NRF2 ppi inhibitor prodrug, and preparation method therefor” (CHINA PHARMACEUTICAL UNIVERSITY, priority 2019, dated 2025)

System: Nrf2 and downstream antioxidant enzyme in RAW264.7 cells
Assay: Western blot of Nrf2 targeting proteins
Assay type: cell-based, mouse
Conditions: LPS, same concentration
Method: Anti-Nrf2 (ab62352) and anti-IL-1β (ab45692) antibodies were purchased from Abcam Technology (England). Anti-HO-1 (SC-136960) and anti-NQO1 (SC-271116) antibodies were purchased from Santa Cruz Biotechnology (California, USA). Anti-β-Actin (60008-1-Ig) and anti-GCLM (14241-1-AP) antibodies were purchased from Proteintech Group (USA). Cell sampling and western blot were performed as previously reported (M.-C. Lu, J.-A. Ji, Y.-L. Jiang, Z.-Y. Chen, Z.-W. Yuan, Q.-D. You, Z.-Y. Jiang, An inhibitor of the Keap1-Nrf2 protein-protein interaction protects NCM460 colonic cells and alleviates experimental colitis, Sci. Rep., 6 (2016) 26585).
To determine the effect of pro2 on Nrf2-ARE-driven gene transcription, mRNA levels of Nrf2 and three downstream genes, HO-1, NQO1 and GCLM, were examined ((A) of FIG. 4 to (D) of FIG. 4). […] The protein levels of the above genes were determined by western blot.

SMILES: COc1ccc(S(=O)(=O)Nc2ccc(N(CC(=O)N3CCSC3=O)S(=O)(=O)c3ccc(OC)cc3)c3ccccc23)cc1 [pro2]
- protein levels of Nrf2 and downstream antioxidant enzyme: significantly increased levels of Nrf2 and downstream antioxidant enzyme
